In patent US12290516B2, “Heterocyclic compounds as EphA4 inhibitors” (The Hong Kong University of Science and Technology, priority 2017, dated 2025):

How the values were obtained:
[1] = biological target: T1, extracellular domain of mouse EphA4 (interaction with ephrin-A1) (Mus musculus, UniProt Q03137); experiment: Dose-response ELISA of the EphA4/ephrin-A1 interaction; type: binding; conditions: read-out: IC50, inhibition of interaction between extracellular domain of mouse EphA4 and ephrin-A1
T1 construct: the extracellular domain of mouse EphA4
Excerpt: FIG. 3. […] Dose-response curve of nilotinib against the interaction of mouse EphA4 with ephrin-A1.
Nilotinib is a kinase inhibitor that targets the following kinases: BCR-ABL, KIT, LCK, EPHA3, EPHA8, DDR1, DDR2, PDGFRB, MAPK11, and ZAK. Nilotinib is predicted to form hydrogen bonds with Q70 in the D-E loop and T104. It also has hydrophobic interactions with F154, V157, 1163, L166, A193, and V195.

EphA4 = experiment: ephrin-A1-induced EphA4 clustering assay in cultured hippocampal neurons; type: cell-based; conditions: dose of 50 μM
Excerpt: FIG. 1. Inhibitory effect of small molecule compounds on EphA4 signaling. Inhibitory activity of 22 selected FDA-approved drugs in ephrin-A1-induced EphA4 clusters in cultured hippocampal neurons. n=4 neuronal cell cultures; *p<0.05 vs. Cont; unpaired Student's t-test.
The inhibitory activity of the 22 drugs listed in Table 1 was examined using an ephrin-A1-induced EphA4 clustering assay in cultured hippocampal neurons.

T1 sequence (Q03137 20-547 limits assumed): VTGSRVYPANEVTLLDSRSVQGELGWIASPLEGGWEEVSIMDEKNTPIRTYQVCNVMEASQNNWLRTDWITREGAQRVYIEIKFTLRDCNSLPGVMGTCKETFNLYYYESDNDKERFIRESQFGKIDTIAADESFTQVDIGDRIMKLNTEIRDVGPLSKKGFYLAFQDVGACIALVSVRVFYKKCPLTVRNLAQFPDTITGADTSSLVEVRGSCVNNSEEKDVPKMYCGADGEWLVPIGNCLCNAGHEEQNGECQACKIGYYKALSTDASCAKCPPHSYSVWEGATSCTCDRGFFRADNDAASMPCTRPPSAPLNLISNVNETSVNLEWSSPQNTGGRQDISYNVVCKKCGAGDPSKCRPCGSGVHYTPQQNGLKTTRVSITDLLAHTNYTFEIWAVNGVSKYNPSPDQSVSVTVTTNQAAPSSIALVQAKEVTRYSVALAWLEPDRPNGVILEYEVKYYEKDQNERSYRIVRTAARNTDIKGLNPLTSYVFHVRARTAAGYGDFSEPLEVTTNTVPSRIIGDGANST

| Compound | IC50 [1] [µM] | inhibition of ephrin-A1-induced EphA4 clustering (EphA4) [%] |
| --- | --- | --- |
| Cc1cn(-c2cc(NC(=O)c3ccc(C)c(Nc4nccc(-c5cccnc5)n4)c3)cc(C(F)(F)F)c2)cn1 [Nilotinib] | 70.7 | 30 |
| C[C@]12CC[C@H](O)CC1=CC[C@@H]1[C@@H]2CC[C@]2(C)C(c3cccnc3)=CC[C@@H]12 [abiraterone] | – | 30 |
| Retapamulin | – | 30 |
| CN1CCC(=C2c3ccccc3C=Cc3ccccc32)CC1 [Cyproheptadine] | – | 30 |
